Measurements: patent US20240199676A1, “ANTIVIRAL COMPOUNDS AND METHODS OF MAKING AND USING THE SAME” (Gilead Sciences, Inc., priority 2022, published 2024)

Legend:
[1] = tested on: Respiratory syncytial virus recombinant with luciferase (RSV-Luc5) in HEp-2 cells; assay: HEp-2 RSV-Luc5 384-well Assay (EC50 RSVFLUC Hep2-384 v2, Ex. V); type: cell-based; conditions: human respiratory syncytial virus, HEp-2, 72 h, read-out: EC50 RSV FLuc Hep-2 384 V2 (per Ex. V)
Method in brief: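 HEp-2 cells (4,000/well) with 10-point 1:3 compound dilutions were infected with RSV-Luc5 at MOI 0.5 and incubated 3 days at 37 °C. Replication was read by One-Glo luminescence and normalized to remdesivir (0%) and DMSO (100%) controls. EC50 is the concentration reducing replication by 50%, from non-linear regression.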

[2] = tested on: Human Rhinovirus 1B (HRV1B) in H1-HeLa cells; assay: H1-HeLa HRV-CTG 384-well Assay (Ex. Y), HRV1B; type: cell-based; conditions: Rhinovirus A, 96 h; H1-HeLa cells, HRV1B MOI 0.5, 4 days, Celltiter-Glo; read-out: EC50 H1-HeLa_HRV1B_HRV-CTG 384-well Assay (per Ex. Y)
Text: Example Y: H1-HeLa HRV-CTG 384-well Assay
H1-Hela cell line (ATCC, Manassas, VA, Cat #CRL-1958) was maintained in Dulbecco's […] (DMEM) (Corning, New York, NY, Cat #15-018CM) supplemented with 10% fetal bovine serum (FBS) (Hyclone, Logan, UT, Cat #SH30071-03), and 1× Penicillin-Streptomycin-L-Glutamine (Corning, New York, NY, Cat #30-009-CI). Cells were passaged 2 times per week to maintain sub-confluent densities and were used for experiments at passage 5-30. The Human Rhinovirus 1B (HRV1B) (ATCC, Manassas, VA, Cat #VR-1645) , Human Rhinovirus 14 (HRV14) (ATCC, Manassas, VA, Cat #VR-284), and Human Rhinovirus 16 (HRV16) (ATCC, Manassas, VA, Cat #BR-283) was obtained through ATCC. Viral infection was monitored by determining viability of H1-HeLa cells as described below.
Test molecules are prepared in 100% DMSO in 384-well polypropylene plates (Greiner, Monroe, NC, Cat #784201) with 8 compounds per plate in grouped replicates of 4 at 10 serially diluted concentrations (1:3). The serially diluted compounds were transferred to low dead volume Echo plates (Labcyte, Sunnyvale, CA, Cat #LP-0200).
The test compounds were spotted to 384-well assay plates (Greiner, Monroe, NC, Cat#781091) at 200 nL per well using an Echo acoustic dispenser (Labcyte, Sunnyvale, CA). H1-HeLa cells were harvested and suspended in DMEM (supplemented with 2% FBS and 1× Penicillin-Streptomycin-L-Glutamine) and seeded to the pre-spotted assay plates at 5,000 cells per well in 30 μL. HRV1B, HRV14, and HRV16 was diluted in DMEM (supplemented with 2% FBS and 1× Penicillin-Streptomycin-L-Glutamine) at 97.1 million Infectious Units (IU) per mL, 151 million IU per mL and 221 million IU per mL respectively. 10 μL of virus per well was added to the assay plates containing cells and compounds, for an MOI of 0.5, 1.0, and 0.25 respectively. The assay plates were incubated for 4 days at 37° C. and 5% CO2. At the end of incubation, Celltiter-Glo (Promega, Madison, WI, Cat #(Ga7573) was prepared. The assay plates and Celltiter-Glo reagent were equilibrated to room temperature for at least 15 minutes. 40 μL per well of Celltiter-Glo reagent was added and the plates were incubated at room temperature for 15 minutes before reading the luminescence signal on an EnVision multimode plate reader (Perkin Elmer, Waltham, MA). Rupintrivir was used as positive control and DMSO was used as negative control. Values were normalized to the positive and negative controls (as 0% and 100% replication, respectively) and data was fitted using non-linear regression analysis by Gilead's dose response tool. The EC50 value for each compound was defined as the concentration reducing viral replication by 50%.

## CC(C)(CF)C(=O)OC[C@@]1(C#N)O[C@@H](c2ccc3c(N)ncnn23)[C@H](O)[C@@H]1O [Compound 29, ((2R,3S,4R,5S)-5-(4-aminopyrrolo[2,1-f][1,2,4]triazin-7-yl)-2-cyano-3,4-dihydroxytetrahydrofuran-2-yl)methyl 3-fluoro-2,2-dimethylpropanoate]
[1]
  EC50: 28.8 µM
[2]
  EC50: 9.37 µM

## CCC(=O)OC[C@@]1(C#N)O[C@@H](c2ccc3c(N)ncnn23)[C@H](O)[C@@H]1O [Compound 5, ((2R,3S,4R,5S)-5-(4-aminopyrrolo[2,1-f][1,2,4]triazin-7-yl)-2-cyano-3,4-dihydroxytetrahydrofuran-2-yl)methyl propionate]
[1]
  EC50: 20 µM
[2]
  EC50: 8.49 µM

## CC(C)C(=O)OC[C@@]1(C#N)O[C@@H](c2ccc3c(N)ncnn23)[C@H](OC(=O)C(C)C)[C@@H]1OC(=O)C(C)C [Compound 20, (2R,3S,4S,5S)-5-(4-aminopyrrolo[2,1-f][1,2,4]triazin-7-yl)-2-cyano-2-((isobutyryloxy)methyl)tetrahydrofuran-3,4-diyl bis(2-methylpropanoate)]
[1]
  EC50: 29.9 µM
[2]
  EC50: 9.63 µM

## CC1(C(=O)OC[C@@]2(C#N)O[C@@H](c3ccc4c(N)ncnn34)[C@H](O)[C@@H]2O)CCC1 [Compound 24, ((2R,3S,4R,5S)-5-(4-aminopyrrolo[2,1-f][1,2,4]triazin-7-yl)-2-cyano-3,4-dihydroxytetrahydrofuran-2-yl)methyl 1-methylcyclobutane-1-carboxylate]
[1]
  EC50: 12 µM
[2]
  EC50: 3.43 µM
